Test results as given in PubChem BioAssay (NCI).
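Exposure lasted 48 hours, with cells grown in 96-well plates and compounds tested at five concentrations. Here, GI50 denotes the concentration required for 50% inhibition of growth. TGI: concentration producing complete growth inhibition.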

Experiments:
Test in all cases: NCI tumour cell line growth inhibition, 48 h
TK-10 renal = system: TK-10 renal
OVCAR-4 ovarian = system: OVCAR-4 ovarian
ACHN renal = system: ACHN renal
SK-MEL-5 melanoma = system: SK-MEL-5 melanoma
MOLT-4 leukemia = system: MOLT-4 leukemia
SNB-19 CNS = system: SNB-19 CNS
UO-31 renal = system: UO-31 renal
U251 CNS = system: U251 CNS
A498 renal = system: A498 renal
HL-60(TB) leukemia = system: HL-60(TB) leukemia

For C=CCCC(O)c1ccc(C(O)CCCCCCCCCCCC)o1 (configuration not stated), the GI50 (TK-10 renal) was 16.4 µM, the TGI (TK-10 renal) was 30.2 µM and the GI50 (OVCAR-4 ovarian) was 30.9 µM. For the same compound, the TGI (OVCAR-4 ovarian) was 92.9 µM, the GI50 (ACHN renal) was 15.8 µM and the TGI (ACHN renal) was 29.2 µM. For the same compound, the GI50 (SK-MEL-5 melanoma) was 20.1 µM, the TGI (SK-MEL-5 melanoma) was 35.7 µM and the GI50 (MOLT-4 leukemia) was 7.16 µM. The TGI (MOLT-4 leukemia) was 38.3 µM, the GI50 (SNB-19 CNS) was 51.6 µM and the TGI (SNB-19 CNS) was greater than 100 µM. It also gave a GI50 (UO-31 renal) of 18.7 µM, a TGI (UO-31 renal) of 41.4 µM and a GI50 (U251 CNS) of 17.5 µM. The TGI (U251 CNS) was 31.9 µM.

CC1(C)CC[C@]2(C(=O)n3ccnc3)CC[C@]3(C)[C@H](C(=O)C=C4[C@@]5(C)C=C(C#N)C(=O)C(C)(C)[C@@H]5CC[C@]43C)[C@@H]2C1 was tested, and the GI50 (TK-10 renal) was less than 0.0132 µM, the TGI (TK-10 renal) was less than 0.0226 µM and the GI50 (A498 renal) was 0.112 µM. The TGI (A498 renal) was 0.28 µM, the GI50 (OVCAR-4 ovarian) was 0.0359 µM and the TGI (OVCAR-4 ovarian) was 0.173 µM. It also gave a GI50 (ACHN renal) of less than 0.0114 µM, a TGI (ACHN renal) of less than 0.0172 µM and a GI50 (SK-MEL-5 melanoma) of 0.0923 µM. The TGI (SK-MEL-5 melanoma) was 0.262 µM, the GI50 (MOLT-4 leukemia) was less than 0.01 µM and the TGI (MOLT-4 leukemia) was less than 0.01 µM. The GI50 (UO-31 renal) was less than 0.0108 µM, the TGI (UO-31 renal) was less than 0.0174 µM and the GI50 (U251 CNS) was less than 0.01 µM. The TGI (U251 CNS) was 0.0281 µM.

In the case of C[C@]12CCC3[C@@H](C[C@H]4OC(=O)[C@@]35CCC(=O)C=C45)C1CCC2=O (some centres not stated), the TGI (TK-10 renal) is reported as greater than 100 µM, the TGI (HL-60(TB) leukemia) is reported as greater than 100 µM and the TGI (ACHN renal) is reported as greater than 100 µM. For the same compound, the TGI (SK-MEL-5 melanoma) was greater than 100 µM, the TGI (MOLT-4 leukemia) was greater than 100 µM and the TGI (SNB-19 CNS) was greater than 100 µM. The TGI (UO-31 renal) was greater than 100 µM and the TGI (U251 CNS) was greater than 100 µM.

Work on CN(C)c1ccc(/C=C/C(=O)c2ccccc2)cc1Br yielded a TGI (TK-10 renal) of 74.2 µM, a TGI (A498 renal) greater than 100 µM and a TGI (OVCAR-4 ovarian) of 34.5 µM. The TGI (ACHN renal) was 51.1 µM, the TGI (SK-MEL-5 melanoma) was 39.1 µM and the TGI (MOLT-4 leukemia) was 69 µM. It also gave a TGI (SNB-19 CNS) of 41.3 µM, a TGI (UO-31 renal) of 33.3 µM and a TGI (U251 CNS) of 33.6 µM.

COc1ccc(C(=O)C(c2ccc(OC)cc2)C2C(=O)Oc3ccccc32)cc1 (configuration not stated) was tested, and the GI50 (TK-10 renal) was greater than 100 µM, the TGI (TK-10 renal) was greater than 100 µM and the GI50 (A498 renal) was greater than 100 µM. The TGI (A498 renal) was greater than 100 µM, the GI50 (OVCAR-4 ovarian) was greater than 100 µM and the TGI (OVCAR-4 ovarian) was greater than 100 µM. For the same compound, the GI50 (ACHN renal) was greater than 100 µM, the TGI (ACHN renal) was greater than 100 µM and the GI50 (SK-MEL-5 melanoma) was greater than 100 µM. The TGI (SK-MEL-5 melanoma) was greater than 100 µM, the GI50 (MOLT-4 leukemia) was greater than 100 µM and the TGI (MOLT-4 leukemia) was greater than 100 µM. For the same compound, the TGI (UO-31 renal) was 51.1 µM.

Compound COc1ccc(-c2cc(-c3ccc(O)cc3)nc3nc(=S)[nH]c(N)c23)cc1 has a GI50 (TK-10 renal) of 32.2 µM, a TGI (TK-10 renal) of 92.9 µM and a GI50 (A498 renal) of 20.5 µM. The TGI (A498 renal) was 43.4 µM, the GI50 (OVCAR-4 ovarian) was 25.3 µM and the TGI (OVCAR-4 ovarian) was greater than 100 µM. For the same compound, the GI50 (ACHN renal) was 19.1 µM, the TGI (ACHN renal) was 65.5 µM and the GI50 (SK-MEL-5 melanoma) was 16.1 µM. It also gave a TGI (SK-MEL-5 melanoma) of 31 µM, a GI50 (MOLT-4 leukemia) of 7.01 µM and a TGI (MOLT-4 leukemia) greater than 100 µM. It also gave a GI50 (SNB-19 CNS) of 26.7 µM, a TGI (SNB-19 CNS) greater than 100 µM and a GI50 (UO-31 renal) of 13.2 µM. It also gave a TGI (UO-31 renal) of 44.9 µM, a GI50 (U251 CNS) of 15.3 µM and a TGI (U251 CNS) of 61.1 µM.

For O=C1CSC(=S)N1c1ccc(F)cc1F, the TGI (TK-10 renal) was greater than 100 µM, the TGI (A498 renal) was greater than 100 µM and the TGI (OVCAR-4 ovarian) was greater than 100 µM. It also gave a TGI (ACHN renal) greater than 100 µM, a TGI (SK-MEL-5 melanoma) of 54.6 µM and a TGI (SNB-19 CNS) greater than 100 µM. It also gave a TGI (UO-31 renal) greater than 100 µM and a TGI (U251 CNS) greater than 100 µM.

Compound CCOc1cc(C=O)c2c(ccc3ccc(OC)c(OC)c32)c1OC has a TGI (TK-10 renal) greater than 100 µM, a TGI (HL-60(TB) leukemia) greater than 100 µM and a TGI (OVCAR-4 ovarian) greater than 100 µM. It also gave a TGI (ACHN renal) greater than 100 µM, a TGI (SK-MEL-5 melanoma) greater than 100 µM and a TGI (MOLT-4 leukemia) greater than 100 µM. It also gave a TGI (SNB-19 CNS) greater than 100 µM, a TGI (UO-31 renal) greater than 100 µM and a TGI (U251 CNS) greater than 100 µM.

With Cn1c(=O)nc2n(-c3ccc(F)cc3)c3ccccc3nc-2c1=O the TGI (TK-10 renal) was 89.1 µM, the TGI (A498 renal) was 93.4 µM and the TGI (OVCAR-4 ovarian) was 27.8 µM. For the same compound, the TGI (ACHN renal) was 49.7 µM, the TGI (SK-MEL-5 melanoma) was 25.8 µM and the TGI (MOLT-4 leukemia) was 62.8 µM. For the same compound, the TGI (SNB-19 CNS) was 37.4 µM, the TGI (UO-31 renal) was greater than 100 µM and the TGI (U251 CNS) was 71.4 µM.

O=C(CCCCC(=O)N/N=C\c1ccccc1Cl)N/N=C\c1ccccc1Cl showed a GI50 (TK-10 renal) of 4.68 µM, a TGI (TK-10 renal) of 25.8 µM and a GI50 (A498 renal) of 3.13 µM. The TGI (A498 renal) was 38.1 µM, the GI50 (OVCAR-4 ovarian) was 7.55 µM and the TGI (OVCAR-4 ovarian) was greater than 100 µM. For the same compound, the GI50 (ACHN renal) was 1.91 µM, the TGI (ACHN renal) was greater than 100 µM and the GI50 (SK-MEL-5 melanoma) was 3.94 µM. It also gave a TGI (SK-MEL-5 melanoma) greater than 100 µM, a GI50 (SNB-19 CNS) of 11.3 µM and a TGI (SNB-19 CNS) of 39.6 µM. It also gave a GI50 (UO-31 renal) of 3.32 µM, a TGI (UO-31 renal) greater than 100 µM and a GI50 (U251 CNS) of 0.757 µM. For the same compound, the TGI (U251 CNS) was 21 µM.

Cc1cc2cc(Cl)ccc2nc1C(=O)c1ccccc1 was tested, and the TGI (TK-10 renal) was greater than 100 µM, the TGI (OVCAR-4 ovarian) was greater than 100 µM and the TGI (ACHN renal) was greater than 100 µM. For the same compound, the TGI (SK-MEL-5 melanoma) was greater than 100 µM, the TGI (MOLT-4 leukemia) was greater than 100 µM and the TGI (SNB-19 CNS) was greater than 100 µM. It also gave a TGI (UO-31 renal) greater than 100 µM and a TGI (U251 CNS) greater than 100 µM.

For O=C1C(c2ccc([N+](=O)[O-])cc2)=[N+]([O-])c2ccccc21, the TGI (TK-10 renal) was 91.9 µM, the TGI (HL-60(TB) leukemia) was 71.9 µM and the TGI (OVCAR-4 ovarian) was 21.7 µM. The TGI (ACHN renal) was greater than 100 µM, the TGI (SK-MEL-5 melanoma) was 31.5 µM and the TGI (MOLT-4 leukemia) was greater than 100 µM. The TGI (UO-31 renal) was 67 µM and the TGI (U251 CNS) was 36.3 µM.

COc1ccc(C(=O)/C(=N/Nc2ccccc2)c2ccc(OC)cc2)cc1 showed a TGI (TK-10 renal) greater than 100 µM, a TGI (OVCAR-4 ovarian) greater than 100 µM and a TGI (ACHN renal) greater than 100 µM. For the same compound, the TGI (SK-MEL-5 melanoma) was greater than 100 µM, the TGI (MOLT-4 leukemia) was greater than 100 µM and the TGI (SNB-19 CNS) was greater than 100 µM. The TGI (UO-31 renal) was greater than 100 µM and the TGI (U251 CNS) was greater than 100 µM.

Work on [N-]=[N+]=Nc1ccccc1-[n+]1noc([O-])c1Br yielded a TGI (TK-10 renal) greater than 100 µM, a TGI (HL-60(TB) leukemia) greater than 100 µM and a TGI (OVCAR-4 ovarian) greater than 100 µM. It also gave a TGI (ACHN renal) greater than 100 µM, a TGI (SK-MEL-5 melanoma) greater than 100 µM and a TGI (MOLT-4 leukemia) greater than 100 µM. The TGI (SNB-19 CNS) was greater than 100 µM, the TGI (UO-31 renal) was greater than 100 µM and the TGI (U251 CNS) was greater than 100 µM.

In the case of COCC1C(=O)c2cc3c(cc2C12C=CC1(C=C2)OCCO1)OCO3 (configuration not stated), the TGI (TK-10 renal) is reported as 34.9 µM, the TGI (HL-60(TB) leukemia) is reported as 5.97 µM and the TGI (OVCAR-4 ovarian) is reported as 27.4 µM. For the same compound, the TGI (ACHN renal) was 25.3 µM, the TGI (MOLT-4 leukemia) was 9.6 µM and the TGI (U251 CNS) was 14 µM.

Compound COC(=O)CCC(=O)CC(=O)C(=O)Nc1ccc(F)cc1 has a TGI (TK-10 renal) greater than 100 µM, a TGI (A498 renal) greater than 100 µM and a TGI (OVCAR-4 ovarian) greater than 100 µM. It also gave a TGI (ACHN renal) greater than 100 µM, a TGI (SK-MEL-5 melanoma) greater than 100 µM and a TGI (MOLT-4 leukemia) greater than 100 µM. It also gave a TGI (SNB-19 CNS) greater than 100 µM, a TGI (UO-31 renal) greater than 100 µM and a TGI (U251 CNS) greater than 100 µM.

Compound O=c1oc2c3ccc4ccccc4c3n(CCN3CCOCC3)c2c2ccccc12 has a TGI (TK-10 renal) greater than 100 µM, a TGI (HL-60(TB) leukemia) greater than 100 µM and a TGI (OVCAR-4 ovarian) greater than 100 µM. It also gave a TGI (ACHN renal) greater than 100 µM, a TGI (MOLT-4 leukemia) of 18.5 µM and a TGI (SNB-19 CNS) greater than 100 µM. For the same compound, the TGI (UO-31 renal) was greater than 100 µM.
